Target: P-glycoprotein (P-gp, MDR1, ABCB1) (Homo sapiens, UniProt P08183)
Test: Bidirectional MDCK-MDR1 permeability assay (Cyprotex)
Conditions: dog, MDCK-MDR1

Chain of P-glycoprotein (P-gp, MDR1, ABCB1) (P08183 whole entry): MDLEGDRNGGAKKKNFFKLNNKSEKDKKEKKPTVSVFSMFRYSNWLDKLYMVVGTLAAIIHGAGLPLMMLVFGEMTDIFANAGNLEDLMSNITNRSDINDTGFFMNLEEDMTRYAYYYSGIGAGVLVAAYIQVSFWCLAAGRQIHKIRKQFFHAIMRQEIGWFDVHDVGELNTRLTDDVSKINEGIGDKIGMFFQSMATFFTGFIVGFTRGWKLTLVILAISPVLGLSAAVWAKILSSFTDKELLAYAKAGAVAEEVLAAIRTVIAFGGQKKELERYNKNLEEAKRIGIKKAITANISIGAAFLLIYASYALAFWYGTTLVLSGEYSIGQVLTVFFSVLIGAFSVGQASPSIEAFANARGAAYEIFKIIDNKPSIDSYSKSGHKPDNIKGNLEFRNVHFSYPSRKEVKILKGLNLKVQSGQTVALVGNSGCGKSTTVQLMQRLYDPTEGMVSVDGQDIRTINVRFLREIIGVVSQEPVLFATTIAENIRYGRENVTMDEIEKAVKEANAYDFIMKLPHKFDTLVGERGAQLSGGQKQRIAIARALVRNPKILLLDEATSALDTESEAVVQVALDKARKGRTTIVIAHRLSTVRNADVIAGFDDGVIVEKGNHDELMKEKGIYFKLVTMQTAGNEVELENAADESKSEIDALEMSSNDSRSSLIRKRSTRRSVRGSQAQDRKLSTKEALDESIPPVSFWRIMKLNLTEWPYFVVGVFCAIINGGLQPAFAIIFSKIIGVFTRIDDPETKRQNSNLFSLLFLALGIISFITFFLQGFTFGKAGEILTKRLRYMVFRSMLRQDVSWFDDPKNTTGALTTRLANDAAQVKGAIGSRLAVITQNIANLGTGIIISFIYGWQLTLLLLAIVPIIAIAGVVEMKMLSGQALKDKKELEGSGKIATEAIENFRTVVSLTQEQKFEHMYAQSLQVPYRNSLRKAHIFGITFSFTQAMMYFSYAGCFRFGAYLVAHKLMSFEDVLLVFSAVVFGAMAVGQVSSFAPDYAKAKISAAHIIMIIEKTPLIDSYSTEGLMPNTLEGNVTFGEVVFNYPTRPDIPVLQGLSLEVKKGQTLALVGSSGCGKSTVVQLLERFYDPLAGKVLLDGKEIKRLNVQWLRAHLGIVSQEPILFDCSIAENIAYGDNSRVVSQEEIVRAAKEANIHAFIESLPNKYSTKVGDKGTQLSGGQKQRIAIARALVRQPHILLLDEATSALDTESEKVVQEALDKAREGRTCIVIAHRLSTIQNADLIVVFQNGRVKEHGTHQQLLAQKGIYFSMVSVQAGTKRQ

**Q.** How did the efflux ratio at 2 h, 10 µM turn out when `CN(C)C(=O)C(CCN1CCC(O)(c2ccc(Cl)cc2)CC1)(c1ccccc1)c1ccccc1` [loperamide] was run?
**A.** Its efflux ratio at 2 h, 10 µM is ~350.
